These results are taken from patent US6362216B1, “Compounds which inhibit tryptase activity” (Array Biopharma Inc., priority 1998, dated 2002).

The first assay addresses T1, Bovine pancreatic Trypsin (TPCK-treated) (Bos taurus, UniProt P00760).
T1 construct: from tissue; host or cells: bovine pancreas
T1 sequence (P00760 24-246): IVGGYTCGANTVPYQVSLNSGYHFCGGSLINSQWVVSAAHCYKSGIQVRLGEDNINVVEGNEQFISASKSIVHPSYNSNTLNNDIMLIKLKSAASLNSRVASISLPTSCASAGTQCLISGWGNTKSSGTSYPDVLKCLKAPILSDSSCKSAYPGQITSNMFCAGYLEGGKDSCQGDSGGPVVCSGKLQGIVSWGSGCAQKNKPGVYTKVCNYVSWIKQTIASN
The assay can be described thus: Bovine pancreatic trypsin inhibition, N-α-Benzoyl-L-Arg-pNA substrate. The format is biochemical. The conditions noted are these: 50 mM Tris-HCl, pH 8.2, 20 mM CaCl2. The procedure:
(§1) Protease inhibition was assayed according to published procedures with minor modifications using various proteases and specific chromogenic peptide p-nitroanilide substrates. Assays were performed in Costar ultra-low cluster 96-well microtiter plate (Costar Corning Corp., Cambridge Mass.). Each protease was incubated with various concentrations of the test compound for 15 min. at 37° C. or as otherwise indicated, in specific assay buffer, and the residual activity was then measured by addition of the substrate. p-Nitroaniline produced by the proteolysis was determined by measuring the change in absorbance at 405 nm on a SpectraMAX 340 plate reader (Molecular devices, Sunnyvale, Calif.).
(§2) 1. The inhibition constant, Ki is calculated from individual data points using the equation for a tight-binding inhibitor (See Beith, “Proteinase Inhibitors-Proceedings of 2nd Int. Res. Conference”, Fritz, et al. eds., New York, p.4463-4469 (1974)):
(§3) The Ki values are obtained by correcting Ki ′ values for the effect of substrate concentration according to: [formula]
(§4) 2. Other inhibition data (Ki>>[E]o), the Ki is calculated from using the equations for a competitive inhibitor: [formula]
C. Bovine Pancreatic Trypsin
Bovine pancreatic Trypsin (TPCK-treated) activity was determined by using N-α-Benzoyl-L-Arg-pNA in 50 mM Tris-HCl, pH 8.2, 20 mM CaCl2 (See Somorin, et al., J. Biochem. 85, 157-162 (1979)).
(§5) The inhibition constant (Ki) of the test compounds against each proteolytic enzyme was determined according to Zitnik et al., Biochem. Biophys. Res. Commun. 232, 687-697 (1997)).
The Ki is the equilibrium dissociation constant of an inhibitor or competing ligand from its target. Read a high Ki as a looser hold on the target. For `N=C(N)c1ccc2sc(C(=O)Nc3cccc(N)c3)cc2c1`, the inhibitory constant (Ki) was 14000 nM.

In turn, `N=C(N)c1ccc2sc(C(=O)NCc3cccc(N)c3)cc2c1` showed a Ki of 9100 nM.

For `N=C(N)c1ccc2sc(CC(=O)NCc3cccc(N)c3)cc2c1`, the affinity corresponds to a Ki of 6400 nM.

For the compound `N=C(N)c1ccc2cc(C(=O)Nc3cccc(N)c3)ccc2c1`, the inhibition constant Ki came to 430 nM.

For the compound `N=C(N)c1ccc2cc(C(=O)NCc3cccc(N)c3)ccc2c1`, the Ki was found to be 1300 nM.

Compound `N=C(N)c1ccc2cc(CC(=O)Nc3cccc(N)c3)ccc2c1` returned an inhibitory constant (Ki) of 2100 nM.

Take `N=C(N)c1ccc2sc(C(=O)NCCc3ccc(N)cc3)cc2c1`: affinity was put at a Ki of 8300 nM.

`N=C(N)c1ccc2sc(C(=O)NCc3ccc(N)cc3)cc2c1` yielded an inhibition constant Ki of 8800 nM.

Regarding `N=C(N)c1ccc2cc(C(=O)NCc3ccc(N)cc3)ccc2c1`, the Ki was found to be 590 nM.

The compound `N=C(N)c1ccc2cc(C(=O)NCCc3ccc(N)cc3)ccc2c1` returned a Ki of 950 nM.

In turn, `N=C(N)c1ccc2[nH]c(CC(=O)Nc3ccc4[nH]ccc4c3)nc2c1` [5-Indole] yielded a Ki of 21800 nM.

`N=C(N)c1ccc2[nH]c(CC(=O)Nc3ccc4ncccc4c3)nc2c1` [6-Quinoline] returned an inhibition constant Ki of 4600 nM.

The compound `N=C(N)c1cccc(NC(=O)Cc2nc3cc(C(=N)N)ccc3[nH]2)c1` [(3-Amidino)Ph] yielded a Ki of 2200 nM.

As for `N=C(N)c1ccc2[nH]c(CC(=O)Nc3cccc(N)c3)nc2c1` [(3-Amino)Ph], the Ki is 14200 nM.

The compound `N=C(N)c1ccc2[nH]c(CC(=O)Nc3cccc(O)c3)nc2c1` [(3-OH)Ph] registered a Ki of 8700 nM.

In turn, `N=C(N)c1ccc(NC(=O)Cc2nc3cc(C(=N)N)ccc3[nH]2)cc1` [(4-Amidino)Ph] yielded a Ki of 1700 nM.

In the case of `N=C(N)c1ccc2[nH]c(CC(=O)NCc3cccc(N)c3)nc2c1` [CH2Ph(3-Amino)], the affinity corresponds to a Ki of 7500 nM.

For `N=C(N)c1ccc2[nH]c(CC(=O)Nc3cccc(N)c3)cc2c1` [drawing 14 Indole 5-carboxamidine n=1 m=0], affinity was put at a Ki of 4000 nM.

On to `N=C(N)c1ccc2[nH]c(CC(=O)Nc3ccc(N)cc3)cc2c1` [drawing 15 Indole 5-carboxamidine n=1 m=0], for which the affinity corresponds to a Ki of 3800 nM.

With `N=C(N)c1ccc2[nH]c(CC(=O)NCc3ccc(N)cc3)cc2c1` [drawing 15 Indole 5-carboxamidine n=1 m=1], the Ki turned out to be 3400 nM.

A further assay addresses T2, Human plasma thrombin (Homo sapiens, UniProt P00734).
T2 construct: from tissue; host or cells: human plasma
The assay can be described thus: Human plasma thrombin inhibition, H-D-Phe-Pip-Arg-pNA substrate. The format is biochemical. The note with it: 50 mM Tris-HCl, pH 8.3, 100 mM NaCl, 1% BSA. The procedure: as §1, §2, §3, §4
Human plasma thrombin activity was determined by using H-D-Phe-Pip-Arg-pNA in 50 mM Tris-HCl, pH 8.3, 100 mM NaCl, 1% BSA (See Lottenberg, et al., Meth. Enzymol. 80, 341-361 (1981)).
as §5
On to `N=C(N)c1ccc2sc(C(=O)Nc3cccc(N)c3)cc2c1`, for which the inhibition constant (Ki) is greater than 100000 nM.

Regarding `N=C(N)c1ccc2sc(C(=O)NCc3cccc(N)c3)cc2c1`, the Ki was greater than 100000 nM.

`N=C(N)c1ccc2sc(CC(=O)NCc3cccc(N)c3)cc2c1` came in with a Ki greater than 100000 nM.

`N=C(N)c1ccc2cc(C(=O)Nc3cccc(N)c3)ccc2c1` yielded a Ki greater than 100000 nM.

In turn, `N=C(N)c1ccc2cc(C(=O)NCc3cccc(N)c3)ccc2c1` gave a Ki greater than 100000 nM.

The compound `N=C(N)c1ccc2cc(CC(=O)Nc3cccc(N)c3)ccc2c1` came in with an inhibition constant (Ki) greater than 100000 nM.

As for `N=C(N)c1ccc2sc(C(=O)NCCc3ccc(N)cc3)cc2c1`, the inhibition constant Ki was greater than 100000 nM.

The compound `N=C(N)c1ccc2sc(C(=O)NCc3ccc(N)cc3)cc2c1` returned a Ki greater than 100000 nM.

`N=C(N)c1ccc2cc(C(=O)NCc3ccc(N)cc3)ccc2c1` yielded a Ki greater than 100000 nM.

Turning to `N=C(N)c1ccc2cc(C(=O)NCCc3ccc(N)cc3)ccc2c1`, the inhibition constant (Ki) was greater than 100000 nM.

`N=C(N)c1ccc2[nH]c(CC(=O)Nc3ccc4[nH]ccc4c3)nc2c1` [5-Indole] yielded a Ki greater than 100000 nM.

The compound `N=C(N)c1ccc2[nH]c(CC(=O)Nc3ccc4ncccc4c3)nc2c1` [6-Quinoline] displayed a Ki greater than 100000 nM.

For `N=C(N)c1cccc(NC(=O)Cc2nc3cc(C(=N)N)ccc3[nH]2)c1` [(3-Amidino)Ph], the inhibition constant Ki is greater than 100000 nM.

Consider `N=C(N)c1ccc2[nH]c(CC(=O)Nc3cccc(N)c3)nc2c1` [(3-Amino)Ph], for which the Ki was greater than 100000 nM.

For the compound `N=C(N)c1ccc2[nH]c(CC(=O)Nc3cccc(O)c3)nc2c1` [(3-OH)Ph], the inhibitory constant (Ki) is greater than 100000 nM.

`N=C(N)c1ccc(NC(=O)Cc2nc3cc(C(=N)N)ccc3[nH]2)cc1` [(4-Amidino)Ph] came in with a Ki greater than 100000 nM.

As for `N=C(N)c1ccc2[nH]c(CC(=O)NCc3cccc(N)c3)nc2c1` [CH2Ph(3-Amino)], the inhibition constant (Ki) was greater than 100000 nM.

Consider `N=C(N)c1ccc2[nH]c(CC(=O)Nc3cccc(N)c3)cc2c1` [drawing 14 Indole 5-carboxamidine n=1 m=0], for which the Ki was greater than 100000 nM.

`N=C(N)c1ccc2[nH]c(CC(=O)Nc3ccc(N)cc3)cc2c1` [drawing 15 Indole 5-carboxamidine n=1 m=0] registered a Ki greater than 100000 nM.

In turn, `N=C(N)c1ccc2[nH]c(CC(=O)NCc3ccc(N)cc3)cc2c1` [drawing 15 Indole 5-carboxamidine n=1 m=1] had a Ki of 65000 nM.

The next assay has as its target T3, Human lung tryptase.
T3 construct: Human lung tryptase purchased from Cortex Biochem (San Leandro, Calif.) was purified further on a Superdex 200 gel-filtration column
The assay can be described thus: Human lung tryptase inhibition, chromogenic GPR-pNA substrate. The conditions noted are these: tryptase 1 nM, GPR-pNA 320 μM, 50 mM Tris-HCl pH 8.0, 37° C. Type of assay: biochemical. The procedure: as §1, §2
vi/vo=[((Ki′+[I]+[E]o)^2−4[I]o[E]o)^½(Ki′+[I]o−[E]o)]/2[E]o
where Ki′ is apparent inhibition constant; vi and vo are the inhibited and uninhibited rates, respectively; [I]o and [E]o are the total concentrations of inhibitor and enzyme, respectively.
[note: [E]o is determined by active site titration of enzyme]
as §3, §4
IC50 is determined by fitting the individual inhibition data point to Sigmoid or four-parameter curve-fit equations.
Human lung tryptase purchased from Cortex Biochem (San Leandro, Calif.) was purified further on a Superdex 200 gel-filtration column. The active-site concentration of the enzyme was determined by spectrophotometric titration with 4-nitrophenyl 4′-guanidinobenzoate according to Schwartz, et al., J. Immunol., 114, 2304-2311 (1990). Tryptase activity was measured according to the procedures of Schwartz, et al., J. Biol. Chem., 261, 7372-7379 (1986) (See also, Schwartz, L. B., Methods In Enzymology, 244, 88 (1994)) with minor modifications, using Tosyl-Gly-Pro-Arg-p-nitroanilide (“GPR-pNA”, Sigma Chemical Co., St. Louis, Mo., T-1637) as a chromogenic substrate. The reaction was performed in 50 mM Tris-HCl, pH 8.0, containing 150 mM NaCl and 0.02% Triton X-100 at 37° C. in Costar ultra-low cluster 96-well microtiter plates (Costar Corning Corp., Cambridge, Mass.). The amount of pNA produced by tryptase was determined by measuring the change in absorbance at 405 nm on a SpectraMAX 340 plate reader (Molecular devices, Sunnyvale, Calif.). The Km for the substrate was determined by Lineweaver-Burk analysis from initial velocities of substrate hydrolysis. The inhibition assay was carried out in a total volume of 200 μL. Tryptase (30 μL-final concentration 1 nM) was incubated with various concentrations of sample compound (50 μL) to be tested in the above assay buffer for 5 min. The reaction was started by the addition of substrate GPR-pNA (40 μL-final concentration 320 μM), and the residual activity was measured after 15 min. of incubation. The inhibition constant, Ki, was determined by fitting the inhibition data to a two-site competitive binding equation using data analysis program GraphPad PRISM (GraphPad Software, Inc., San Diego, Calif.).
as §5
With `N=C(N)c1ccc2sc(C(=O)Nc3cccc(N)c3)cc2c1`, affinity was put at a Ki of 520 nM.

In turn, `N=C(N)c1ccc2sc(C(=O)NCc3cccc(N)c3)cc2c1` yielded a Ki of 220 nM.

Consider `N=C(N)c1ccc2sc(CC(=O)NCc3cccc(N)c3)cc2c1`, for which the inhibition constant (Ki) amounted to 90 nM.

`N=C(N)c1ccc2cc(C(=O)Nc3cccc(N)c3)ccc2c1` showed a Ki of 55 nM.

In turn, `N=C(N)c1ccc2cc(C(=O)NCc3cccc(N)c3)ccc2c1` displayed an inhibition constant (Ki) of 80 nM.

For `N=C(N)c1ccc2cc(CC(=O)Nc3cccc(N)c3)ccc2c1`, the Ki is 1200 nM.

For `N=C(N)c1ccc2sc(C(=O)NCCc3ccc(N)cc3)cc2c1`, the Ki is 170 nM.

Compound `N=C(N)c1ccc2sc(C(=O)NCc3ccc(N)cc3)cc2c1` showed a Ki of 440 nM.

For the compound `N=C(N)c1ccc2cc(C(=O)NCc3ccc(N)cc3)ccc2c1`, affinity was put at a Ki of 210 nM.

In turn, `N=C(N)c1ccc2cc(C(=O)NCCc3ccc(N)cc3)ccc2c1` had a Ki of 160 nM.

In the case of `N=C(N)c1ccc2[nH]c(CC(=O)Nc3ccc4[nH]ccc4c3)nc2c1` [5-Indole], the Ki stood at 810 nM.

Compound `N=C(N)c1ccc2[nH]c(CC(=O)Nc3ccc4ncccc4c3)nc2c1` [6-Quinoline] had an inhibitory constant (Ki) of 340 nM.

In turn, `N=C(N)c1cccc(NC(=O)Cc2nc3cc(C(=N)N)ccc3[nH]2)c1` [(3-Amidino)Ph] had a Ki of 520 nM.

Regarding `N=C(N)c1ccc2[nH]c(CC(=O)Nc3cccc(N)c3)nc2c1` [(3-Amino)Ph], the Ki was 290 nM.

As for `N=C(N)c1ccc2[nH]c(CC(=O)Nc3cccc(O)c3)nc2c1` [(3-OH)Ph], the Ki stood at 570 nM.

In turn, `N=C(N)c1ccc(NC(=O)Cc2nc3cc(C(=N)N)ccc3[nH]2)cc1` [(4-Amidino)Ph] returned an inhibitory constant (Ki) of 970 nM.

Compound `N=C(N)c1ccc2[nH]c(CC(=O)NCc3cccc(N)c3)nc2c1` [CH2Ph(3-Amino)] displayed a Ki of 490 nM.

Turning to `N=C(N)c1ccc2[nH]c(CC(=O)Nc3cccc(N)c3)cc2c1` [drawing 14 Indole 5-carboxamidine n=1 m=0], the Ki was 390 nM.

For the compound `N=C(N)c1ccc2[nH]c(CC(=O)Nc3ccc(N)cc3)cc2c1` [drawing 15 Indole 5-carboxamidine n=1 m=0], the Ki amounted to 200 nM.

As to `N=C(N)c1ccc2[nH]c(CC(=O)NCc3ccc(N)cc3)cc2c1` [drawing 15 Indole 5-carboxamidine n=1 m=1], the Ki was found to be 440 nM.
